# US20070231269A1, “Analgesics” (IONIX PHARMACEUTICALS LIMITED, priority 2002, published 2007)
# Experiment: Solubility of buprenorphine hydrochloride in pectin solutions (saturated solution, hplc)
# Details: for solubility: 18 °C, thermodynamic from solid; for Buprenorphine detected: solubility, 20 mg/ml pectin, pH 3-6, 18° C., expressed as buprenorphine free base
structure (smiles),measurement,setting,value
"CO[C@]12CCC3(C[C@@H]1[C@](C)(O)C(C)(C)C)[C@H]1Cc4ccc(O)c5c4[C@@]3(CCN1CC1CC1)[C@H]2O5 [Buprenorphine, 5α,7α(S)-17-(cyclopropylmethyl)-α-(1,1-dimethylethyl)-4,5-epoxy-18,19-dihydro-3-hydroxy-6-methoxy-α-methyl-6,14-ethenomorphinan-7-methanol]",solubility,aqueous with cosolvent or surfactant or cyclodextrin,> 10000 µg/mL
same,solubility,"pH 4.5, aqueous with cosolvent or surfactant or cyclodextrin",< 10000 µg/mL
same,Buprenorphine detected,dextrose 0-50 mg/ml,not affected significantly
same,Buprenorphine detected,mannitol 0-50 mg/ml,not affected significantly
